This is an account of results in patent US7371742B2, “Porphyrin derivatives for photodynamic therapy” (Institut Curie, priority 2001, dated 2008).

In data set [1] the test system is human colic adenocarcinoma cell line HT29.
Method: (§1) HT29 cells were cultivated in Dulbecco's MEM supplemented with 10% fetal calf serum (FCS). Cells from log-phase culture were seeded in 24-microwell plates (1 mL-5×10^4 cells/well) and kept at 37° C. in a water-jacketed incubator for 2 days under an air/CO2 atmosphere (5% CO2). Tested compounds, in DMSO solution, were added under the minimum volume (5 μL) to reach a concentration ranging from 0.1 to 10 μg/mL. Controls cells received 5 μL of DMSO free of dye. Plates were incubated 24 h, then medium was removed and the cells were washed twice with phosphate buffered saline (PBS) before addition of fresh medium free of drug and irradiation with visible light using a home made “light box” giving a fluence of 3.8 mW/cm^2 on the whole visible spectrum. Irradiation with red light was carried out using the same device fitted with an orange filter (0% T at 520 nm and 80% T at 590 nm) leading to a fluence of 2 mW/cm^2.
(§2) Plates were reincubated for 3 days before evaluation of the cell survival using the MTT assay (T. Mosmann, “Rapid calorimetric assay for cellular growth and survival. Application to proliferation assays”. J. Immunol. Methods 65,55-63,1983) using 30 min incubation with 100 μg well of 3-[4,5-dimethylthiazol-2-yl]-2,5-diphenyl tetrazolium bromide (MTT, Sigma). After removal of the medium, formazan crystals were taken up with 100 μL of DMSO and absorbance at 540 ni was measured with a Bio-Rad microplate reader (model 450); survival was expressed as % of untreated controls.
Data set [2] concerns RBY-79 (indifferently named Y-79) cells. The data set is described as follows: RBY-79 (Y79) cell cytotoxicity / photocytotoxicity.
From the text: (§3) Columns HT29 and Y79 (═RBY79), without light, correspond to the cytotoxic activity.
Data set [3] concerns human colic adenocarcinoma cell line HT29. Briefly: HT29 cell survival (MTT assay) after 24 h incubation, with or without light irradiation. For orientation: Tetrazolium assays rely on reduction of a dye to a coloured formazan, in cell work by metabolically active cells.
Method: as §1, §2
The subject of the next data set is L-1210 cells. Briefly: Cytotoxicity L-1210 (no light), cytostatic activity. In kind it is cell-based, human. An excerpt: Column L1210 corresponds to the cytostatic activity.
The test system of data set [4] is RBY-79 (indifferently named Y-79) cells.
From the text: as §3
The mark [5] stands for this setting: read-out: Y79 IC50 (μM) without light, without light (cytotoxic activity).
[6] abbreviates: read-out: HT 29 IC50 (μM) with 2J/cm^2, irradiation with filter (0% T at 520 nm, 80% T at 590 nm), 3.5 mW/cm^2, 10 min.
[7] abbreviates: read-out: HT 29 IC50 (μM) without light, without light (cytotoxic activity).

Like-named read-outs stand apart in the source and are kept apart here.

For the compound “5, 10, 15-tri(meta-hydroxyphenyl)-20-phenyl)-2,3-chlorin and 5,10,15-tri(3-hydroxyphenyl)-7,8-chlorin [Compound 77-78]”, the “cytotoxic for HT29 (in words)” value in data set [1] was “cytotoxic”. The IC50 was 0.6 ± 0.1 µM in data set [2] (read-out: Y79 IC50 (μM) With 2J/cm^2, irradiation with filter (0% T at 520 nm, 80% T at 590 nm), 3.5 mW/cm^2, 10 min); more than 10 µM in data set [2] (setting [5]); 1.5 ± 0.07 µM in data set [3] (setting [6]); 6.6 ± 0.9 µM in data set [3] (setting [7]).

For the compound `OC[C@H]1O[C@@H](SCc2ccc(-c3c4nc(c(-c5ccc(CS[C@@H]6O[C@H](CO)[C@@H](O)[C@H](O)[C@H]6O)cc5)c5ccc([nH]5)c(-c5ccc(CS[C@@H]6O[C@H](CO)[C@@H](O)[C@H](O)[C@H]6O)cc5)c5nc(c(-c6ccc(CS[C@@H]7O[C@H](CO)[C@@H](O)[C@H](O)[C@H]7O)cc6)c6ccc3[nH]6)C=C5)C=C4)cc2)[C@H](O)[C@@H](O)[C@@H]1O` [Compound 65, TPP(p-CH2-S-β-GluOH)4], the “Cytotoxicity L-1210 (no light), % at 10 μg/ml” value in the data set with L-1210 cells amounted to 16%. For the same compound, the “cytotoxic for Y79 (in words)” value in data set [4] was “cytotoxic”. The “RBY-79, concentration giving 50% with light or not” value in data set [2] (50% effect, with light or not) is reported as 50% at 5 μg/ml. In addition, the “Y79 IC50 (μM) With 2J/cm^2” value in data set [2] (irradiation with filter (0% T at 520 nm, 80% T at 590 nm), 3.5 mW/cm^2, 10 min) was “Inactive”. Also, the IC50 in data set [2] (setting [5]) was 4.7 µM; in data set [3] (setting [6]), 5.2 µM; in data set [3] (setting [7]) it was more than 10 µM.
